According to PMC6199744, “Development of Chemical Proteomics for the Folateome and Analysis of the Kinetoplastid Folateome” (ACS Infectious Diseases, 2018):
“And” between values parts separate entries of the source, which are not always exact repeats. Equal entries are not always repeated. Where two headings read alike, the source gives them in different places.

Test system: L. major lysate proteins
Test: Multitargeted bead mixture chemoproteomics, single concentration competition, proteome-wide
Format: binding
Conditions: for fold change / fold change relative to vehicle control: vehicle control = 1; for fold change relative to vehicle control: competition with free ligand

`CCCCCCOc1ccc(Cc2cnc(N)nc2N)cc1` [compound 1] was tested, and the “fold change vs vehicle control” value was 0.96 and 1.16 and 1.02 and 0.84, the fold change (LINJ.05.0500 ATPASE ALPHA SUBUNIT) was 1.04 and the fold change (LINJ.36.4570 PROTEASOME REGULATORY ATPASE SUBUNIT) was 0.72. For the same compound, the fold change (LMJF.10.0510 GLYCEROL-3-PHOSPHATE DEHYDROGENASE NAD ], GLYCOSOMAL) was 0.92, the fold change (LMJF.16.1610 PROHIBITIN) was 1.18 and the fold change (LMJF.18.1370 HEAT SHOCK PROTEIN, PUTATIVE) was 0.95. For the same compound, the fold change (LMJF.19.0300 RNA BINDING PROTEIN, PUTATIVE) was 0.89, the fold change (LMJF.21.0760 […]-ATP-ASE SUBUNIT 5, PUTATIVE) was 0.7 and the fold change (LMJF.22.0410 HYPOTHETICAL PROTEIN, CONSERVED) was 0.84. For the same compound, the fold change (LMJF.25.1770 ENOYL-COA REDUCTASE, PUTATIVE) was 0.98, the fold change (LMJF.26.0300 AMINOPEPTIDASE-LIKE PROTEIN) was 0.77 and the fold change (LMJF.26.2560 HYPOTHETICAL PROTEIN, CONSERVED) was 0.82. It also gave a fold change (LMJF.27.1810 GLYCOSOMAL PHOSPHOENOLPYRUVATE CARBOXYKINASE, PUTATIVE) of 1.05, a fold change (LMJF.28.0490 PROPIONYL-COA CARBOXYLASE BETA CHAIN, PUTATIVE) of 0.7 and a fold change (LMJF.29.0940 HY[…], CONSERVED) of 1.06. The fold change (LMJF.29.1310 CARNITINE/CHOLINE ACETYLTRANSFERASE, PUTATIVE) was 0.99, the fold change (LMJF.29.1470 HYPOTHETICAL PROTEIN, CONSERVED) was 0.73 and the fold change (LMJF.29.2440 HYPOTHETICAL PROTEIN, CONSERVED) was 0.88. It also gave a fold change (LMJF.30.2350 SPHINGOSINE 1-PHOSPHATE LYASE) of 1.13, a fold change (LMJF.30.2970 GLYCERALDEHYDE 3-PHOSPHATE DEHYDROGENASE, GLYCOSOMAL) of 1.09 and a fold change (LMJF.30.3390 CAS/CSE/IMPORTIN DOMAIN PROTEIN, PUTATIVE) of 0.85. It also gave a fold change (LMJF.31.2650 ACETOIN DEHYDROGENASE E3 COMPONENT-LIKE PROTEIN) of 0.92, a fold change (LMJF.31.2970 ACETYL-COA CARBOXYLASE, PUTATIVE) of 0.96 and a fold change (LMJF.33.1030 HYPOTHETICAL PROTEIN, CONSERVED) of 0.85. For the same compound, the fold change (LMJF.33.1930 PHOSPHORIBOSYLPYROPHOSPHATE SYNTHETASE, PUTATIVE) was 0.91, the fold change (LMJF.35.5040 polyadenylate-binding protein 1) was 0.93 and the fold change (LMJF.35.5250 ALPHA-1,2-MANNOSYLTRANSFERASE, PUTATIVE) was 0.88. For the same compound, the fold change (LMJF.36.5100 HYPOTHETICAL PROTEIN, CONSERVED) was 0.89, the fold change (LMJF.[…] RIBOSOMAL PROTEIN S7, PUTATIVE) was 1.43 and the “fold change vs vehicle control” value (protein LINJ.03.0940 HY[…], CONSERVED) was 1.24. For the same compound, the “fold change vs vehicle control” value (protein LINJ.09.0030 HYPOTHETICAL PROTEIN, CONSERVED) was 0.98, the “fold change relative to vehicle control” value (protein LINJ.11.0780 40S RIBOSOMAL PROTEIN S21, PUTATIVE) was 1.29 and the fold change (protein LINJ.13.0990 PROTEASOME REGULATORY ATPASE SUBUNIT 2, PUTATIVE) was 0.79. The “fold change vs vehicle control” value (protein LINJ.13.1460 ALPHA TUBULIN) was 1, the fold change (protein LINJ.15.0090 HEAT SHOCK PROTEIN HSLVU, ATPASE SUBUNIT HSLU, PUTATIVE) was 0.97 and the “fold change relative to vehicle control” value (protein LINJ.16.1380 […], PUTATIVE) was 1.55. The “fold change vs vehicle control” value (protein LINJ.19.0300 RNA BINDING PROTEIN) was 1.16, the “fold change relative to vehicle control” value (protein LINJ.20.1390 COATOMER BETA SUBUNIT, PUTATIVE) was 1.01 and the “fold change vs vehicle control” value (protein LINJ.21.1310 40S RIBOSOMAL PROTEIN S23, PUTATIVE) was 1.08. For the same compound, the “fold change vs vehicle control” value (protein LINJ.23.1680 HYPOTHETICAL PROTEIN, CONSERVED) was 0.98, the “fold change vs vehicle control” value (protein LINJ.25.1170 […] OXIDASE VII, PUTATIVE) was 1.03 and the “fold change relative to vehicle control” value (protein LINJ.25.1220 RIBOSOMAL PROTEIN S25) was 1.36. For the same compound, the “fold change vs vehicle control” value (protein LINJ.26.1080 HY[…], CONSERVED) was 1.09, the “fold change vs vehicle control” value (protein LINJ.27.1140 HYPOTHETICAL PROTEIN, CONSERVED) was 0.97 and the “fold change vs vehicle control” value (protein LINJ.28.1100 RIBOSOMAL PROTEIN S20, PUTATIVE) was 1. The “fold change relative to vehicle control” value (protein LINJ.28.1940 REPLICATION FACTOR A, 51KDA SUBUNIT, PUTATIVE) was 1.2, the fold change (protein LINJ.31.2350 ADP-RI[…], PUTATIVE) was 1.13 and the “fold change vs vehicle control” value (protein LINJ.34.0670 PROTEASOME REGULATORY NON-ATP-ASE SUBUNIT 11, PUTATIVE) was 0.97. The fold change (protein LINJ.35.0410 40S RIBOSOMAL PROTEIN S3A, PUTATIVE) was 1.07, the “fold change relative to vehicle control” value (protein LINJ.35.0780 CBS DOMAIN PROTEIN, CONSERVED) was 1.21 and the “fold change vs vehicle control” value (protein LINJ.36.0510 HY[…], CONSERVED) was 1.03. The “fold change vs vehicle control” value (protein LINJ.36.3940 40S RIBOSOMAL PROTEIN S27-1, PUTATIVE) was 0.91, the fold change (protein LINJ.36.4180 HS1VU COMPLEX PROTEOLYTIC SUBUNIT-LIKE) was 0.81 and the fold change (protein LINJ.36.7350 CYTOCHROME C OXIDASE SUBUNIT I) was 0.96. The fold change (protein LMJF.01.0520 LONG-CHAIN-FATTY-ACID-COA LIGASE, PUTATIVE) was 0.59, the “fold change vs vehicle control” value (protein LMJF.02.0460 HYPOTHETICAL PROTEIN, CONSERVED) was 0.96 and the “fold change vs vehicle control” value (protein LMJF.03.0230 LONG CHAIN FATTY ACYL COA SYNTHETASE, PUTATIVE) was 1.11. For the same compound, the “fold change vs vehicle control” value (protein LMJF.03.0630 HYPOTHETICAL PROTEIN, CONSERVED) was 0.95, the fold change (protein LMJF.05.0780 HY[…], CONSERVED) was 1.17 and the fold change (protein LMJF.06.0010 HISTONE H4) was 1.14. The fold change (protein LMJF.06.0140 PROTEASOME BETA 6 SUBUNIT, PUTATIVE) was 0.8, the fold change (protein LMJF.06.0650 LANOSTEROL SYNTHASE, PUTATIVE) was 0.88 and the “fold change vs vehicle control” value (protein LMJF.08.0510 RIBOSE-PHOSPHATE PYROPHOSPHOKINASE, PUTATIVE) was 1.04. The “fold change vs vehicle control” value (protein LMJF.08.0550 TRANSLATION INITIATION FACTOR-LIKE PROTEIN) was 1.1, the “fold change vs vehicle control” value (protein LMJF.08.1100 HY[…], CONSERVED) was 1.01 and the “fold change relative to vehicle control” value (protein LMJF.09.1120 MIT[…] BINDING PROTEIN 2,MRP2, GBP25) was 1.17. The “fold change vs vehicle control” value (protein LMJF.09.1260 HY[…], CONSERVED) was 1.16, the fold change (protein LMJF.10.1010 NUCLEOSIDE PHOSPHORYLASE-LIKE PROTEIN) was 0.72 and the fold change (protein LMJF.10.1240 HYPOTHETICAL PROTEIN, CONSERVED) was 0.8. The “fold change vs vehicle control” value (protein LMJF.11.0130 NGG1 I[…] 3-LIKE PROTEIN) was 0.99, the “fold change vs vehicle control” value (protein LMJF.11.0240 […] 7 SUBUNIT, PUTATIVE) was 1.03 and the fold change (protein LMJF.11.1050 PRETRA[…], ALPHA SUBUNIT, PUTATIVE) was 1.11. The “fold change vs vehicle control” value (protein LMJF.11.1110 60S RIBOSOMAL PROTEIN L28, PUTATIVE) was 1.29, the “fold change vs vehicle control” value (protein LMJF.12.0210 […] […]1L8 3, PUTATIVE) was 1.04 and the “fold change vs vehicle control” value (protein LMJF.12.0280 ORNITHINE DECARBOXYLASE, PUTATIVE) was 0.98. For the same compound, the “fold change vs vehicle control” value (protein LMJF.13.0450 HYPOTHETICAL PROTEIN, CONSERVED) was 0.99, the “fold change vs vehicle control” value (protein LMJF.13.0870 MITOCHONDRIAL PROCESSING PEPTIDASE ALPHA SUBUNIT, PUTATIVE) was 0.94 and the “fold change vs vehicle control” value (protein LMJF.14.0130 INOSINE-GUANINE NUCLEOSIDE HYDROLASE, PUTATIVE) was 0.91. The fold change (protein LMJF.14.0310 […] 3 SUBUNIT, PUTATIVE) was 1.01, the fold change (protein LMJF.14.0650 FATTY ACID ELONGASE, PUTATIVE) was 0.96 and the fold change (protein LMJF.14.0660 FATTY ACID ELONGASE, PUTATIVE) was 1.11. For the same compound, the fold change (protein LMJF.14.0705 FATTY ACID ELONGASE, PUTATIVE) was 1.02, the fold change (protein LMJF.14.0740 FATTY ACID ELONGASE, PUTATIVE) was 1.2 and the “fold change relative to vehicle control” value (protein LMJF.14.1120 KINESIN K39, PUTATIVE) was 1.45. The “fold change vs vehicle control” value (protein LMJF.15.0230 LYSYL-TRNA SYNTHETASE, PUTATIVE) was 1.07, the “fold change vs vehicle control” value (protein LMJF.15.0280 RIBONUCLEOPROTEIN P18, MIT[…], PUTATIVE) was 1.04 and the fold change (protein LMJF.15.1010 GLUTAMATE DEHYDROGENASE) was 1.09. For the same compound, the “fold change relative to vehicle control” value (protein LMJF.16.0520 HYPOTHETICAL PROTEIN, CONSERVED) was 2.54, the fold change (protein LMJF.16.0540 ASPARTATE CARBAMOYLTRANSFERASE, PUTATIVE) was 0.89 and the “fold change vs vehicle control” value (protein LMJF.16.0950 SUCROSE-PHOSPHATE SYNTHASE-LIKE PROTEIN) was 0.99. For the same compound, the “fold change vs vehicle control” value (protein LMJF.16.0960 HYPOTHETICAL PROTEIN, CONSERVED) was 0.44, the fold change (protein LMJF.16.1180 COATOMER DELTA SUBUNIT-LIKE PROTEIN) was 0.87 and the fold change (protein LMJF.17.0010 HYPOTHETICAL PROTEIN, CONSERVED) was 0.88. For the same compound, the “fold change vs vehicle control” value (protein LMJF.18.0510 ACONITASE, PUTATIVE) was 0.98, the “fold change vs vehicle control” value (protein LMJF.18.0890 RAB7 GTP BINDING PROTEIN, PUTATIVE) was 0.94 and the fold change (protein LMJF.18.1130 RAS-RELATED PROTEIN RAB-5, PUTATIVE) was 0.85. The fold change (protein LMJF.19.1120 PROTEASOME REGULATORY NON-ATP-ASE SUBUNIT, PUTATIVE) was 0.9, the “fold change vs vehicle control” value (protein LMJF.19.1160 HYPOTHETICAL PROTEIN, CONSERVED) was 0.83 and the “fold change vs vehicle control” value (protein LMJF.19.1530 PEPTIDYLPROLYL ISOMERASE-LIKE PROTEIN) was 0.94. The fold change (protein LMJF.20.0100 PHOSPH[…] C, GLYCOSOMAL) was 1.04, the “fold change vs vehicle control” value (protein LMJF.21.0720 HY[…], CONSERVED) was 1.05 and the fold change (protein LMJF.21.1250 ADENYLATE KINASE, PUTATIVE) was 0.98. The fold change (protein LMJF.21.1555 HY[…], CONSERVED) was 1.01, the fold change (protein LMJF.21.1580 HY[…], UNKNOWN FUNCTION) was 1.03 and the “fold change vs vehicle control” value (protein LMJF.21.1700 […] 2 SUBUNIT, PUTATIVE) was 0.89. For the same compound, the fold change (protein LMJF.22.0230 AMINO ACID PERMEASE, PUTATIVE) was 1.2 and the “fold change vs vehicle control” value (protein LMJF.22.0730 HYPOTHETICAL PROTEIN, CONSERVED) was 1.
